# Measured values published in patent US8765755B2, “N-containing heterocyclic compounds” (YM Biosciences Australia Pty Ltd, priority 2007, dated 2014).
# Experiments:
# BafT_J2 = test: Cellular screening, BaF3 TEL:JAK2 cells (Alamar Blue); format: cell-based; conditions: Mus musculus, 40 hr incubation
# Experimental: (§1) For screening purposes, compounds were diluted in 96 well plates at a concentration of 20 μM. Plates were warmed at 37° C. for 30 minutes before the assay was performed.
# (§2) The coding region encompassing nucleotides 1-487 of TEL was amplified by PCR using the oligonucleotides 5TEL (5′-GGAGGATCCTGATCTCTCTCGCTGTGAGAC-3′) [SEQ ID NO 14] and 3TEL (5′-AGGC GTCGACTTCTTCTTCATGGTTCTG-3′) [SEQ ID NO 15] and U937 mRNA as a template. A BamHI restriction site was incorporated into the 5TEL primer, and a Sal I restriction site was incorporated into the 3TEL primer. The regions encompassing the kinase domain of JAK2 (nucleotides 2994-3914; JAK2F 5′-ACGC GTCGACGGTGCCTTTGAAGACCGGGAT-3′ [SEQ ID NO 16]; JAK2R 5′-ATAGTTTAGCGGCCGCTCAGAATGAAGGTCATTT-3′) [SEQ ID NO 17] and JAK3 (nucleotides 2520-3469; JAK3F 5′-GAAGTCGACTATGCCTGCCAAGACCCCACGATCTT-3′) [SEQ ID NO 18] were generated by PCR using Taq DNA polymerase (Gibco/BRL) and U937 mRNA as a template. A Sal I restriction site was incorporated into the forward primer of JAK2 and JAK3, a Not I site was incorporated into the JAK2 reverse primer and a Xba I site was added to the reverse primer of JAK3.
# A TEL/Jak2 fusion was generated by digestion of the TELPCR product with BamH I/Sal I restriction enzymes, digestion of the JAK2 PCR product with Sal I/Not I restriction enzymes, followed by ligation and subcloning of the ligation product into the mammalian expression Vector pTRE 2 (Clontech), which was prepared by digestion with BamH I-Not I restriction enzymes, to give the TEL/Jak2 fusion plasmid pTELJAK2.
# (§3) The growth factor dependant myelomonocytic cell line BaF3 bearing the pTET-off plasmid (Clontech) was transfected with either pTELJAK2 or pTELJAK3, and the transfected cells were selected for growth-factor independent cell growth. The BaF3 wild-type cells were cultured in DMEM containing 10% FCS, 10% WEHI 3B conditioned medium. The BaF3 TELJAK cells ([…]) were cultured in DMEM 10% Tet-System Approved FBS (without WEHI 3B conditioned medium).
# (§4) Cell suspensions were prepared by harvesting cells from culture. (the cells used in this test were in late log phase growth with high viability.) Cells were diluted in the appropriate growth medium, as described above, to 1.1× final concentration (from 50,000 cell/mL to 200,000 cell/mL, depending on cell line).
# (§5) Compounds to be tested were added (10 μL, 10× final concentration) to a flat bottomed 96-well plate. The cellular suspension (90 μL per well) was then added, and the plate incubated for 40 hr at 37° C., 5% CO2. Alamar Blue 10 μL per well was added and the plates returned to the incubator for a further 4-6 hours. The plates were then read at 544 nm.
# BAF3wt = test: Cellular screening, BaF3 wild-type cells (Alamar Blue); format: cell-based; conditions: Mus musculus, 40 hr incubation
# Experimental: as §1, §3, §4, §5
# BafT_J3 = test: Cellular screening, BaF3 TEL:JAK3 cells (Alamar Blue); format: cell-based; conditions: Mus musculus, 40 hr incubation
# Experimental: as §1, §2
# The TEL/Jak3 fusion was prepared by ligation of the JAK3 Sal I/Not I cleaved kinase domain PCR product with the BamH I/Sal I restriction digested TEL product, followed by ligation of the ligation product into the BamH I/Not I digested pTRE2, to give the TEL/Jak3 fusion plasmid pTELJAK3.
# as §3, §4, §5
# human JAK3 = molecular target: T1, human JAK3 (Homo sapiens, UniProt P52333); test: JAK3 kinase enzyme assay (Alphascreen); format: biochemical; conditions: 80 or 625 um ATP
# T1 construct: The kinase domain of human JAK3 was amplified; GST (N); made in house; host or cells: Sf9 (Spodoptera frugiperda) insect cells, baculovirus
# Experimental: (§6) For screening purposes, compounds (in 100% DMSO) were warmed at 37 degrees for at least 20 minutes before use. A […] stock was initially made in assay buffer, where the final concentration of DMSO was 0.3%. The stocks were then diluted in 384 well Optiplates (Packard) where the final concentration of the compound was 5 μM.
# The kinase domain of human JAK3 was amplified from U937mRNA using the polymerase chain reaction with the following primers: […]
# The JAK3 PCR products were cloned into the pDest20 destination expression vector (Gibco). The JAK3 plasmid was then transformed into competent DH10Bac cells (Gibco), and the recombinant baculovirus was prepared via Sf9 insect cell transfection.
# (§7) Baculovirus preparations from each of the JAK family members were infected into one litre of Sf9 (Spodoptera frugiperda) cells (Invitrogen) grown in SF900II serum free medium (Invitrogen) to a cell density of approximately 2×10^6 cells/ml. Cells were infected with virus at a cell culture to virus stock ratio of 20:1. Cells were harvested and lysed 48 hours post infection. The GST-tagged JAK kinase domains were purified by affinity chromatography on a GSH agarose column (Scientifix).
# (§8) Kinase assays were performed in 384 well Optiplates (Packard) using an Alphascreen Protein Tyrosine KinaseP100 detection kit The compounds were pre-incubated with affinity purified PTK domain in the presence of phosphotyrosine assay buffer (10 mM HEPES, pH 7.5, 100 mM MgCl2, 25 mM NaCl, 200 mM sodium vanadate and 0.1% Tween 20) for 20 minutes. The compounds were then incubated with substrate in the presence of either 80 or 625 um ATP for 60 or 90 minutes. The substrate used was either susbtrate-1 with the sequence biotin-EGPWLEEEEEAYGWMDF-NH2 [SEQ. ID. NO. 13] (final concentration 111 μM) or susbtrate-2 substrate with the sequence biotin-EQEDEPEGDYFEWLEPE (final concentration 133 μM). Alphascreen phosphotyrosine acceptor beads followed by streptavidin donor beads at a concentration of 1/100 in stop buffer were added to each well under subdued light and incubated for 2-3 hours. The Alphascreen plates were read on a Packard Fusion Alpha instrument.
# CTLL2 = test: Cellular screening, CTLL2 cells (Alamar Blue); format: cell-based; conditions: Mus musculus, CTLL-2, 40 hr incubation
# Experimental: as §1, §4, §5
# human JAK2 = molecular target: T2, human JAK2 (Homo sapiens, UniProt O60674); test: JAK2 kinase enzyme assay (Alphascreen); format: biochemical; conditions: 80 or 625 um ATP
# T2 construct: The kinase domain of human JAK2 was amplified; GST (N); made in house; host or cells: Sf9 (Spodoptera frugiperda) insect cells, baculovirus
# Experimental: as §6
# The kinase domain of human JAK2 was amplified from U937mRNA using the polymerase chain reaction with the following primers: […]
# The JAK2 PCR products were cloned into the pDest20 destination vector (Gibco). The JAK2 plasmid was then transformed into competent DH10Bac cells (Gibco), and the recombinant baculovirus was prepared via Sf9 insect cell transfection.
# as §7, §8
# T2 sequence (O60674 849-1124 limits assumed): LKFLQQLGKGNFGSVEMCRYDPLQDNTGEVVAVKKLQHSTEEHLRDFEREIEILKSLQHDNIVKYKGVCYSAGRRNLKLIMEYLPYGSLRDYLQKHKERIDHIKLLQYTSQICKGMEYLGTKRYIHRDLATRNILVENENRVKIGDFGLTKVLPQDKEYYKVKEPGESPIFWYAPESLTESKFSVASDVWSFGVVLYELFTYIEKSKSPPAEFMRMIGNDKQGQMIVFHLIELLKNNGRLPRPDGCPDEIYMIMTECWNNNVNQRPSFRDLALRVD
# T1 sequence (P52333 822-1111 limits assumed): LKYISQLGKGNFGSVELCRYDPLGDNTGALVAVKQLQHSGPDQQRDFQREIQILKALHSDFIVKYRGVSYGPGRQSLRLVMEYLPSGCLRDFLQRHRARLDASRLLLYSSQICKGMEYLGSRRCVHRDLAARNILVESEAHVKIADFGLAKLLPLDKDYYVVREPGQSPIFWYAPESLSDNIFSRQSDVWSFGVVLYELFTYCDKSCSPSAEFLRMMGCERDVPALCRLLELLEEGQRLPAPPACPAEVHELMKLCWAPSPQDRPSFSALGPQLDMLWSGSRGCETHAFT
structure (smiles),measurement,setting,value
"COc1ncc(-c2csc3cnc(Nc4ccc(OC)c(OC)c4)nc23)c(OC)n1 [Compound 56, N-(3,4-dimethoxyphenyl)-7-(2,4-dimethoxypyrimidin-5-yl)thieno[3,2-d]pyrimidin-2-amine]",IC50,BafT_J2,< 5000 nM
same,IC50,BAF3wt,< 5000 nM
same,IC50,BafT_J3,< 5000 nM
same,IC50,human JAK3,< 100 nM
same,IC50,CTLL2,< 5000 nM
same,IC50,human JAK2,< 100 nM
"CC(C)(C)NS(=O)(=O)c1cccc(-c2csc3cnc(Nc4ccc(CN5CCOCC5)cc4)nc23)c1 [Compound 58, N-tert-butyl-3-(2-(4-(morpholinomethyl)phenylamino)thieno[3,2-d]pyrimidin-7-yl)benzenesulfonamide]",IC50,BafT_J2,< 1000 nM
same,IC50,BAF3wt,< 1000 nM
same,IC50,BafT_J3,< 1000 nM
same,IC50,human JAK3,< 500 nM
same,IC50,CTLL2,< 1000 nM
same,IC50,human JAK2,< 100 nM
"CC(=O)Nc1cccc(-c2csc3cnc(Nc4ccc(OCCN5CCCC5)cc4)nc23)c1 [Compound 62, N-(3-(2-(4-(2-(pyrrolidin-1-yl)ethoxy)phenylamino)thieno[3,2-d]pyrimidin-7-yl)phenyl)acetamide]",IC50,BafT_J2,< 1000 nM
same,IC50,BAF3wt,< 1000 nM
same,IC50,BafT_J3,< 1000 nM
same,IC50,human JAK3,< 100 nM
same,IC50,CTLL2,< 1000 nM
same,IC50,human JAK2,< 100 nM
"N#CCNC(=O)c1cccc(-c2csc3cnc(Nc4ccc(N5CCOCC5)cc4)nc23)c1 [Compound 63, N-(cyanomethyl)-3-(2-(4-morpholinophenylamino)thieno[3,2-d]pyrimidin-7-yl)benzamide]",IC50,BafT_J2,< 1000 nM
same,IC50,BAF3wt,< 1000 nM
same,IC50,BafT_J3,< 1000 nM
same,IC50,human JAK3,< 100 nM
same,IC50,CTLL2,< 1000 nM
same,IC50,human JAK2,< 100 nM
"CCN1CCC(Oc2ccc(Nc3ncc4scc(-c5cccc(S(=O)(=O)NC(C)(C)C)c5)c4n3)cc2)CC1 [Compound 65, N-tert-butyl-3-(2-(4-(1-ethylpiperidin-4-yloxy)phenylamino)thieno[3,2-d]pyrimidin-7-yl)benzenesulfonamide]",IC50,BafT_J2,< 1000 nM
same,IC50,BAF3wt,< 5000 nM
same,IC50,BafT_J3,< 1000 nM
same,IC50,human JAK3,< 100 nM
same,IC50,CTLL2,< 5000 nM
same,IC50,human JAK2,< 100 nM
"CCN1CCN(Cc2ccc(Nc3ncc4scc(-c5cccc(S(=O)(=O)NC(C)(C)C)c5)c4n3)cc2)CC1 [Compound 68, N-tert-butyl-3-(2-(4-((4-ethylpiperazin-1-yl)methyl)phenylamino)thieno[3,2-d]pyrimidin-7-yl)benzenesulfonamide]",IC50,BafT_J2,< 1000 nM
same,IC50,BAF3wt,< 1000 nM
same,IC50,BafT_J3,< 1000 nM
same,IC50,human JAK3,< 500 nM
same,IC50,CTLL2,< 5000 nM
same,IC50,human JAK2,< 100 nM
"N#CCNC(=O)c1cccc(-c2csc3cnc(Nc4ccc(CN5CCOCC5)cc4)nc23)c1 [Compound 70, N-(cyanomethyl)-3-(2-(4-(morpholinomethyl)phenylamino)thieno[3,2-d]pyrimidin-7-yl)benzamide]",IC50,BafT_J2,< 1000 nM
same,IC50,BAF3wt,< 1000 nM
same,IC50,BafT_J3,< 1000 nM
same,IC50,human JAK3,< 100 nM
same,IC50,CTLL2,< 5000 nM
same,IC50,human JAK2,< 100 nM
"CC(C)(C)NS(=O)(=O)c1cccc(-c2csc3cnc(Nc4ccc(OCCN5CCCC5)cc4)nc23)c1 [Compound 71, N-tert-butyl-3-(2-(4-(2-(pyrrolidin-1-yl)ethoxy)phenylamino)thieno[3,2-d]pyrimidin-7-yl)benzenesulfonamide]",IC50,BafT_J2,< 1000 nM
same,IC50,BAF3wt,< 5000 nM
same,IC50,BafT_J3,< 1000 nM
same,IC50,human JAK3,< 100 nM
same,IC50,CTLL2,< 5000 nM
same,IC50,human JAK2,< 100 nM
CC(C)(C)OC(=O)NCc1cccc(-c2csc3cnc(Nc4ccc(OCCN5CCCC5)cc4)nc23)c1 [Compound 72],IC50,BafT_J2,< 1000 nM
same,IC50,BAF3wt,< 5000 nM
same,IC50,BafT_J3,< 1000 nM
same,IC50,human JAK3,< 100 nM
same,IC50,CTLL2,< 1000 nM
same,IC50,human JAK2,< 100 nM
"NS(=O)(=O)c1cccc(-c2csc3cnc(Nc4ccc(OCCN5CCCC5)cc4)nc23)c1 [Compound 73, 3-(2-(4-(2-(pyrrolidin-1-yl)ethoxy)phenylamino)thieno[3,2-d]pyrimidin-7-yl)benzenesulfonamide]",IC50,BafT_J2,< 1000 nM
same,IC50,BAF3wt,< 1000 nM
same,IC50,BafT_J3,< 1000 nM
same,IC50,human JAK3,< 100 nM
same,IC50,CTLL2,< 5000 nM
same,IC50,human JAK2,< 100 nM
"Fc1ccc(-c2csc3cnc(Nc4ccc(OCCN5CCCC5)cc4)nc23)cc1Cl [Compound 74, 7-(3-chloro-4-fluorophenyl)-N-(4-(2-(pyrrolidin-1-yl)ethoxy)phenyl)thieno[3,2-d]pyrimidin-2-amine]",IC50,BafT_J2,< 1000 nM
same,IC50,BAF3wt,< 5000 nM
same,IC50,BafT_J3,< 5000 nM
same,IC50,human JAK3,< 500 nM
same,IC50,CTLL2,< 5000 nM
same,IC50,human JAK2,< 100 nM
"c1cc(Nc2ncc3scc(-c4ccc5c(c4)OCO5)c3n2)ccc1CN1CCOCC1 [Compound 76, 7-(benzo[d][1,3]dioxol-5-yl)-N-(4-(morpholinomethyl)phenyl)thieno[3,2-d]pyrimidin-2-amine]",IC50,BafT_J2,< 1000 nM
same,IC50,BAF3wt,< 1000 nM
same,IC50,BafT_J3,< 1000 nM
same,IC50,human JAK3,< 500 nM
same,IC50,CTLL2,< 1000 nM
same,IC50,human JAK2,< 100 nM
"CC(C)(C)OC(=O)N1CC=C(c2csc3cnc(Nc4ccc(CN5CCOCC5)cc4)nc23)CC1 [Compound 79, tert-butyl 4-(2-(4-(morpholinomethyl)phenylamino)thieno[3,2-d]pyrimidin-7-yl)-5,6-dihydropyridine-1(2H)-carboxylate]",IC50,BafT_J2,< 1000 nM
same,IC50,BAF3wt,< 5000 nM
same,IC50,BafT_J3,< 5000 nM
same,IC50,human JAK3,< 100 nM
same,IC50,CTLL2,< 1000 nM
same,IC50,human JAK2,< 100 nM
"CC(=O)Nc1cccc(-c2csc3cnc(Nc4ccc(CN5CCOCC5)cc4)nc23)c1 [Compound 81, N-(3-(2-(4-(morpholinomethyl)phenylamino)thieno[3,2-d]pyrimidin-7-yl)phenyl)acetamide]",IC50,BafT_J2,< 1000 nM
same,IC50,BAF3wt,< 1000 nM
same,IC50,BafT_J3,< 1000 nM
same,IC50,human JAK3,< 500 nM
same,IC50,CTLL2,< 1000 nM
same,IC50,human JAK2,< 100 nM
